From paper PMC12355554, “Development of novel mitochondrial pyruvate carrier inhibitors for breast cancer treatment” (The Journal of Biological Chemistry, 2025) come the findings set out here.

One data set relates to 67NR. As to the kind of experiment: Sulforhodamine B cell proliferation inhibition assay, 67NR. The class given is cell-based, murine. To be noted: Mus musculus, 72 h, average ± SEM. Here is the method: (§1) Cells were seeded (3 × 10^4 cells/well) in 48-well plates and incubated overnight (37 °C, 5% CO2). Test compounds were then exposed to cells in duplicate in serial dilution fashion and were incubated for an additional 72 h (37 °C, 5% CO2). Media were then aspirated, and cells were washed three times with cold PBS and left overnight to dry fix. […] Dyed cells were then lysed with Tris (10 mM, pH 10), and absorbance readings were recorded at 540 nm of each well. Treatment absorbances are taken as percentages of the average untreated absorbances and plotted against log(concentration) in GraphPad Prism 10 to generate effective concentration values where 50% of the cells are not proliferating (EC50).

Data set [1] can be described thus: Maximum tolerated dose study, oral dosing, 21 days. The class given is in vivo, severe combined immunodeficient mice.
The next data set has as its system MDA-MB-231. Put plainly: Sulforhodamine B cell proliferation inhibition assay, MDA-MB-231. The format is cell-based. Particulars: Homo sapiens, 72 h. Here is the method: as §1
For data set [2], the system named is 4T1 cells. As to the kind of experiment: L-lactate accumulation assay, 4T1. Particulars: MCT1-expressing 4T1 cells; 24 h.
Method: To test this, we assayed intracellular lactate accumulation following C5 treatment in MCT1-expressing 4T1 cells and MCT4-expressing MDA-MB-231 cells using commercially available lactate kits.
On the third day, media were aspirated, and wells were rinsed twice with cold PBS. […] At this time, 1 ml of PBS was added to each well and underwent freeze–thaw lysis at −80 °C. Media in each well were aliquoted and centrifuged (16,000g, 10 min, 4 °C). The lysate supernatant was then aliquoted, and pellet was discarded. L-lactate concentration was then determined using Eton Biosciences L-Lactate assay kit 1 by mixing lysate sample with L-lactate assay solution in duplicate, incubating for 30 min (37 °C, 0% CO2) and measuring absorbance of enzyme produced INT formazan at 490 nm using a BioTek Synergy 2 plate reader. Absorbance values were compared with an L-lactate standard curve concomitantly ran with test samples to determine lactate concentration in each sample. Lactate concentrations were normalized to total protein using a Pierce Bicinchoninic Acid Protein Assay Kit.
Data set [3] concerns 4T1. As to the kind of experiment: Sulforhodamine B cell proliferation inhibition assay, 4T1. Particulars: Mus musculus, 72 h, average ± SEM. The class given is cell-based, murine. Here is the method:
as §1

The test system of data set [4] is 4T1 cells. Put plainly: Seahorse mitochondrial stress test in intact 4T1 cells. The class given is cell-based, murine.
The nature of data set [5]: General tolerability dose escalation, intraperitoneal, CD-1 mice. The format is in vivo. Here is the method: After obtaining PK parameters of C5, we carried out a general tolerability dose escalation study via intraperitoneal injection to determine a maximum tolerated dose for future tumor efficacy studies (Fig. S3B). […] In CD-1 mice, dosing began at 5 mg/kg for 7 days. After 7 days, dosing was increased to 6 mg/kg; however, at this dose, there were acute respiratory effects and lethargy observed in the mice deeming it a toxic dose.
Dosing was increased to 6 mg/kg on day 8, but significant acute respiratory effects were observed indicating toxicity. Due to this acute effect, the study was terminated, and all mice were euthanized. The study was carried out following Institutional Animal Care and Use Committee protocol 2211-40546A.

Data set [6] deals with T1, mitochondrial pyruvate carrier (MPC) (Mus musculus, UniProt P63030+Q9D023).
T1 construct: host or cells: 4T1 murine breast cancer cells, rPFO-permeabilized
T1 sequence (P63030 1-109): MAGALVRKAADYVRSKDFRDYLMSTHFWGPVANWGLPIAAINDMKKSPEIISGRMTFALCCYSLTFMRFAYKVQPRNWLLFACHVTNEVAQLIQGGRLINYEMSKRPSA
T1 sequence (Q9D023 1-127): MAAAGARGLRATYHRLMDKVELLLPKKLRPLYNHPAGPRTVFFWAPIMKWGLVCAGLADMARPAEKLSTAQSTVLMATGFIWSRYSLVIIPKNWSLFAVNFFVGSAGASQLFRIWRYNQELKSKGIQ
As to the kind of experiment: Methyl pyruvate reversal of inhibited Pyr-driven respiration. The format is cell-based, murine. To be noted: permeabilized 4T1 cells; 20 mM methyl Pyr. The text has this: Although our initial experiments and previous literature illustrate the ability of the candidate compounds to inhibit Pyr-driven respiration, we sought to investigate the ability of candidate compounds to inhibit respiration fueled by other metabolic substrates, glutamate and succinate (Fig. 2). Glutamate, similar to Pyr oxidation, results in NADH equivalents that fuel complex I-mediated respiration, and succinate metabolism offers FADH2 for electrons in complex II-driven respiratory processes. […] To further validate the mode of action of the candidate compounds, a series of similar Seahorse experiments were employed (Fig. 2, A–C). In these experiments, 4T1 cells were first permeabilized and were then offered metabolic substrates Pyr (Pyr/Mal; Fig. 2A), glutamate (Glu/Mal, Fig. 2B), or succinate (Fig. 2C), and the resulting OCR was observed. As described previously, Mal and DCA were included in the substrate milieu of glutamate respiration experiments. […] To validate that inhibition of Pyr respiration is due to mitochondrial Pyr uptake and not other Pyr-processing enzymes (i.e., Pyr dehydrogenase), a parallel experiment using methyl pyruvate (MePyr) was employed (Fig. 2, E and F). MePyr is permeable to the mitochondrial membranes, where in the matrix, mitochondrial esterase hydrolysis activity provides Pyr.
Permeabilized cell assays were performed using rPFO as described previously. […]

For data set [7], the system named is MPC1 and MPC2 KO 4T1 cells. As to the kind of experiment: Pyr-driven respiration in CRISPR-Cas9 MPC1/MPC2 KO 4T1 cells. To be noted: permeabilized MPC1/MPC2 KO 4T1 cells, FCCP stimulated.
For a further data set, the system named is 4T1 tumor. Put plainly: Tumor efficacy study in a 4T1 syngraft. To be noted: 5 mg/kg daily for 11 days.
Data set [8] has as its system 4T1. Put plainly: MTT cell proliferation inhibition assay, 4T1. The class given is cell-based, murine. Particulars: Mus musculus, 72 h, 3 days, average ± SEM. The protocol: Confluent cell cultures were treated with trypsin and resuspended at 5 × 10^4 cells/ml. To a 96-well plate, 100 μl of the 5 × 10^4 cells/ml solution were added and allowed to incubate at 37 °C, 5% CO2 for 24 h. Compounds were then added and allowed to incubate for 3 days. […] Following the 4-h incubation with 3-(4,5-dimethylthiazol-2-yl)-2,5-diphenyltetrazolium bromide, 100 μl of SDS (0.1 g/ml, 0.01 N HCl) was added, and 96-well plates were allowed to incubate for an additional 4 h. […] Treatment absorbances are taken as percentages of the average untreated absorbances and plotted against log(concentration) in GraphPad Prism 10 (GraphPad Software, Inc) to generate effective concentration values where 50% of the cells are not proliferating (EC50).

On to `CN(Cc1ccc(C(F)(F)F)cc1)c1ccc2cc(C(=O)O)c(=O)oc2c1.NC(CO)(CO)CO` [C5, 1,3-dihydroxy-2-(hydroxymethyl)propan-2-aminium 7-(methyl(4-(trifluoromethyl)benzyl)amino)-2-oxo-2H-chromene-3-carboxylate], for which the EC50 in the data set with 67NR was 94.7 ± 12.9 µM; with MDA-MB-231, above 1000 µM; in the data set with 4T1 [3], 67.9 ± 7.3 µM; with 4T1 [8], 23.4 ± 4.9 µM. Also, the MTD at 21 days in [1] (female, BALB/c, mouse, in vivo, oral, daily for 21 days) was found to be 40 mg/kg. In addition, the “changes in body weight or behavior” value in [1] (oral 10, 20, 40 mg/kg daily for 21 days) is on record as “not any significant changes”. Moreover, the intracellular lactate accumulation entry with 4T1 cells [2] is “potent accumulation of lactate”. Besides, in the data set with 4T1 cells [4], the “compensatory glycolysis (extracellular acidification rates)” value is on record as “dose-dependent decrease”. Also, in the data set with 4T1 cells [4] (media with glucose, Pyr, glutamine), the “mitochondrial respiration (OCR)” value is on record as “inhibited mitochondrial respiration in a dose-dependent fashion”. The “clinical observations after single oral dose” value (oral 10, 25, and 40 mg/kg, 7 days) is on record as “no signs of clinical toxicity”. In addition, the “gross pathology, including general cardiotoxicity, after organ resection” value (oral, end of study) is recorded as “no gross pathology”. Moreover, in [5], the “toxic dose (acute respiratory effects and lethargy)” value is on record as 6 mg/kg. Further, the MTD at 7 days in data set [5] (female, mouse, in vivo, ip, once daily 7 days, read-out: maximum tolerated dose) is 5 mg/kg. For the same molecule, the “reversal of Pyr-driven respiration effects by methyl pyruvate” value in data set [6] is “able to reverse”. The “effects on Pyr-driven maximal respiration in MPC-KO lines” value in data set [7] is “largely diminished”. Moreover, in the data set with 4T1 tumor, the mouse body weight entry is reported as “remained constant”. The “reduction in tumor mass compared with vehicle” value in the data set with 4T1 tumor (BALB/c) is given as around 41%. In the data set on 4T1 tumor (BALB/c), the “reduction in tumor volume compared with vehicle” value is listed as around 20%.
